Results as given in ChEMBL document CHEMBL1201862, “PubChem BioAssay data set” (2004).
Active and inactive are the calls of the source.

Legend:
[1] = A Cell-Based Confirmatory Screen for Compounds that Inhibit VEEV, TC-83 (8).; type: functional
[2] = molecular target: T1, Low molecular weight phosphotyrosine protein phosphatase (Homo sapiens, UniProt P24666); type: functional; details: read-out: IC50_Mean
[3] = molecular target: T1, Low molecular weight phosphotyrosine protein phosphatase; type: functional; details: read-out: IC50_Mean; remark: listed apart in the source
Streptokinase A = molecular target: T2, Streptokinase A (Streptococcus pyogenes serotype M1, UniProt P10520); assay: S. pyogenes streptokinase expression inhibitors, potency, dose response, plasminogen activation absorbance, OD405 (AID 1914); type: functional, Streptococcus pyogenes M1 GAS;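 also: secreted streptokinase activity via plasminogen activation per viability signal from cell pellet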
T2 sequence (P10520 whole entry): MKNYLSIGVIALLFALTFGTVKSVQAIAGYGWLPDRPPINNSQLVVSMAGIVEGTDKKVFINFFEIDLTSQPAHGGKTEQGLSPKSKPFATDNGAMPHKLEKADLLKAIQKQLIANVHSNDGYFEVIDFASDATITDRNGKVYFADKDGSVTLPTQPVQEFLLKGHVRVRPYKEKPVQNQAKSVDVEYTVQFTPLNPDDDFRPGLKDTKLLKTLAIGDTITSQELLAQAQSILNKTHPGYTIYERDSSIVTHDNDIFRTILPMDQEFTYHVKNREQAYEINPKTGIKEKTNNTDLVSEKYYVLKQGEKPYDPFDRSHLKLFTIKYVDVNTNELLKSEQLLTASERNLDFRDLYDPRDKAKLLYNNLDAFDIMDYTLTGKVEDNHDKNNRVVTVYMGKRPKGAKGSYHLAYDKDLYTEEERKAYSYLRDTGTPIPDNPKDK

Streptococcus = assay: Group A Streptococcus viability loss, dose response, counter-screen for streptokinase expression inhibitor project, luminescence, BacTiterGlo (AID 1915); type: functional, organism-based;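 also: potency for reduction of bacterial viability or growth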
[4] = molecular target: Matrix metalloproteinase-14 (Homo sapiens, UniProt P50281); assay: Dose Response confirmation of uHTS hits for a small molecule inhibitors of MT1-MMP activation in a fluorescence assay set 1.; type: functional
Nonstructural protein 1 = Nonstructural protein 1 (Influenza A virus, UniProt Q194T2); type: functional, Influenza A virus (A/California/07/2009(H1N1))
[5] = test system: Streptococcus sp. 'group A'; assay: growth inhibition of control SK(-) GAS strain, dose response, counter-screen for streptokinase expression inhibitor project, luminescence, kanamycin, BacTiterGlo, confirmation (AID 1900); type: functional, organism-based
[6] = molecular target: T3, Nuclear receptor subfamily 0 group B member 1 (Homo sapiens, UniProt P51843); type: functional, cell-based
T3 sequence (P51843 whole entry): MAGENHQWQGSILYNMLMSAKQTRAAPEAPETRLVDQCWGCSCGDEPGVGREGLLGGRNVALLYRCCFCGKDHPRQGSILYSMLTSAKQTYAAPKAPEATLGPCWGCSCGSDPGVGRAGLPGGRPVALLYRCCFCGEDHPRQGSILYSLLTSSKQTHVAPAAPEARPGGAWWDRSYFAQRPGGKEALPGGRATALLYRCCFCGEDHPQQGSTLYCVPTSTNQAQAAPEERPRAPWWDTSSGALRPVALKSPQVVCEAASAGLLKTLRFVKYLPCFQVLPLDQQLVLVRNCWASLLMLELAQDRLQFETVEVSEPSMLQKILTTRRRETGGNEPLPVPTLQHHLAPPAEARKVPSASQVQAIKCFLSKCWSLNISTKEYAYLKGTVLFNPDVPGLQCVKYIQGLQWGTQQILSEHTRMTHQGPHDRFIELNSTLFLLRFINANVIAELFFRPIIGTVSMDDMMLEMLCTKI

Fatty acid synthase [7] = molecular target: T4, Fatty acid synthase (Homo sapiens, UniProt P49327); assay: FAS thioesterase domain inhibitors, dose response, biochemical, endpoint fluorescence intensity, uHTS hits (AID 624327); type: functional;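 also: fluorescence from hydrolysis of an O-methyl fluorescein acyl ester substrate by the enzyme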
cells = type: functional, cell-based
[8] = HEp-2 cell cytotoxicity, dose response, cytotoxicity control for RSV inhibitor project, HTS (AID 2410); type: functional; details: human respiratory syncytial virus
Fatty acid synthase [9] = molecular target: T4, Fatty acid synthase; assay: FAS thioesterase domain inhibitors, dose response, biochemical, kinetic fluorescence intensity (AID 624326); type: functional;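 also: rate of fluorescence rise from hydrolysis of a fluorogenic O-methyl fluorescein ester substrate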
[10] = AlphaScreen signal interference compounds, dose response, artefact control for ARNT-TACC3 interaction inhibitor project, biochemical, luminescence, cherry-pick (AID 651705); type: functional;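 also: AlphaScreen bead proximity signal that flags compounds interfering with the detection technology; potency reflects signal decrease which marks the compound as an assay artifact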
Aminopeptidase N = molecular target: T5, Aminopeptidase N (Plasmodium falciparum FcB1/Columbia, UniProt O96935); assay: P. falciparum M1AAP inhibitors, biochemical, fluorogenic H-Leu-NHMec substrate, 1536-well (AID 1445); set-up: species or system Plasmodium falciparum 3D7, 3D7
T5 sequence (O96935 whole entry): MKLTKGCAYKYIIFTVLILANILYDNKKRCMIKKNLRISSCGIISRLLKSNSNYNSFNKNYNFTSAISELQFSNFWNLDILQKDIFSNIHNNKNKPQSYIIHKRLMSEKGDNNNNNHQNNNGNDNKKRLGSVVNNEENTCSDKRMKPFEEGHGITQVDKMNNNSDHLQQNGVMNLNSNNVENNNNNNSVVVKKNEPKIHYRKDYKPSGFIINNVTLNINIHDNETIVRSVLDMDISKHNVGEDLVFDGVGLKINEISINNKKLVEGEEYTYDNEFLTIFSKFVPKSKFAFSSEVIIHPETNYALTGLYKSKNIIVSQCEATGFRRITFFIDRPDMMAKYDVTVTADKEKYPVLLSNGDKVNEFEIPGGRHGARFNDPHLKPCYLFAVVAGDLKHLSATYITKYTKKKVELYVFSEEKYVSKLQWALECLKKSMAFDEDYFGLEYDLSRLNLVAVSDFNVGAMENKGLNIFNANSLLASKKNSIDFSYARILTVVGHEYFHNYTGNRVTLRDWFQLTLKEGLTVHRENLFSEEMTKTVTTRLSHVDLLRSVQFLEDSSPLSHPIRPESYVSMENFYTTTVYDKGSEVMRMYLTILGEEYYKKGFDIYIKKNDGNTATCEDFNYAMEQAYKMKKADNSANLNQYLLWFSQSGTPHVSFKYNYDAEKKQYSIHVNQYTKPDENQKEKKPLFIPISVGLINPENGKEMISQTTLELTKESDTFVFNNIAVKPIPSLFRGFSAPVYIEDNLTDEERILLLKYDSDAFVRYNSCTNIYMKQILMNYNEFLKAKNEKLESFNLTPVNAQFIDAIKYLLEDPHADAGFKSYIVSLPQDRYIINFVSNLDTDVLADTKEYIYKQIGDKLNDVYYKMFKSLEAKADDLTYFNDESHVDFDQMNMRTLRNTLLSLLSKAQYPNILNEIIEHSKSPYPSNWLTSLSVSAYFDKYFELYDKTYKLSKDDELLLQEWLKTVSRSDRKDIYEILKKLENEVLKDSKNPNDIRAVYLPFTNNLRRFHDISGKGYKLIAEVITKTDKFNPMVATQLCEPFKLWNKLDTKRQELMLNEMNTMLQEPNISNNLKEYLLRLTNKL

[11] = molecular target: Nuclear receptor subfamily 5 group A member 2 (Homo sapiens, UniProt O00482); type: functional, cell-based;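 also: HEK293T cells transfected with LRH-1 and a StAR promoter luciferase reporter; potency for inhibitors that lower LRH-1 driven reporter light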
[12] = StAR promoter reporter inhibition counter-screen, dose response, counter-screen for LRH-1 inverse agonist project, cell-based, luminescence, luciferase reporter (AID 651969); type: functional
Steroidogenic factor 1 = Steroidogenic factor 1 (Homo sapiens, UniProt Q13285); assay: Counterscreen for inverse agonists of the liver receptor homolog-1 (LRH-1; NR5A2): Luminescence-based cell-based high throughput dose response assay to identify inverse agonists of the Steroidogenic Factor 1 Nuclear Receptor (SF1; NR5A1).; type: functional
[13] = molecular target: Long-chain-fatty-acid--AMP ligase FadD28 (Mycobacterium tuberculosis, UniProt P9WQ59); assay: Fluorescence polarization aasay to screen for inhibitors that compete for the binding of FadD28 to a bisubstrate Measured in Biochemical System Using Plate Reader - 2147-01_Inhibitor_Dose_CherryPick_Activity.; type: functional, Mycobacterium tuberculosis H37Rv
Vero = assay: Vero cell toxicity, dose response, cytotoxicity control, plate reader, cherry-pick samples (AID 687020); type: functional, cell-based; details: Chlorocebus sabaeus
Caspase-6 = molecular target: T6, Caspase-6 (Homo sapiens, UniProt P55212); assay: human caspase-6 inhibitors, dose response, biochemical, VEID-R110 fluorescence, cherry-pick (AID 720632)
T6 sequence (P55212 whole entry): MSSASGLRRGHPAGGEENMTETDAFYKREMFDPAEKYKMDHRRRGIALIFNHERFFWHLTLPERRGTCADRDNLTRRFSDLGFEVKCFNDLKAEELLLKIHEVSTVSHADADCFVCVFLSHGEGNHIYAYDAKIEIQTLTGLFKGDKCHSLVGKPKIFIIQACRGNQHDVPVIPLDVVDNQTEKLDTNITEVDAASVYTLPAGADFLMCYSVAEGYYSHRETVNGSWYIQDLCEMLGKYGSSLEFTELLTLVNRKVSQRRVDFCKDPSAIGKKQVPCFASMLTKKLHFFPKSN

Beta-lactamase [14] = molecular target: T7, Beta-lactamase (Pseudomonas aeruginosa, UniProt Q79MP6); assay: IMP-1 metallo-beta-lactamase inhibitors, dose response, selectivity assay for VIM-2 inhibitor project, biochemical, epi-absorbance (AID 1920)
Beta-lactamase [15] = molecular target: T7, Beta-lactamase; assay: […] counterscreen for selective VIM-2 inhibitors: dose response biochemical high throughput screening assay to identify inhibitors of IMP-1 metallo-beta-lactamase.
Beta-lactamase [16] = molecular target: Beta-lactamase (Salmonella choleraesuis (strain SC-B67), UniProt Q5J463); assay: Epi-absorbance-based counterscreen for selective VIM-2 inhibitors: dose response biochemical high throughput screening assay to identify inhibitors of TEM-1 serine-beta-lactamase.
Mu-type opioid receptor = Mu-type opioid receptor (Homo sapiens, UniProt P35372); type: functional, cell-based;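 also: U2OS cells with beta-arrestin recruitment to OPRM1 by beta-gal complementation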
[17] = molecular target: 5-hydroxytryptamine receptor 2A (Mus musculus, UniProt P35363); type: functional, cell-based;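 also: CHO-K1 cells with tagged receptor and beta-arrestin; agonist potency measured as compound-induced activation of the receptor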
[18] = molecular target: ATP-dependent translocase ABCB1 (Homo sapiens, UniProt P08183); assay: ABCG2 efflux pump inhibitor potency, dose response, Ig-MXP3 cells, JC-1, flow cytometry, set 2 (AID 504566); type: functional; details: read-out: EC50_MICROM_;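 also: flow cytometry median green fluorescence of retained JC-1 dye; potency of efflux pump inhibition measured as rising substrate retention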
H9c2 = assay: cells; type: functional, cell-based; details: Rattus norvegicus, H9c2, Myocardium;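 also: confirmatory concentration-response retest of ultra-high-throughput screening hits for modulation of myocardial damage; cell death induced by hydrogen peroxide oxidative stress; compound pretreatment for 60 min then peroxide exposure for 2 h; potency is for protecting the cells against peroxide damage rather than for killing them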
[19] = T. cruzi growth inhibition in host cells, dose response, cell-based, plate reader, dry powder, set 2 (AID 652275); type: functional
[20] = molecular target: T8, Probable nicotinate-nucleotide adenylyltransferase (Staphylococcus aureus (strain N315), UniProt P65502); type: functional, Staphylococcus aureus subsp. aureus N315; details: read-out: IC50_Mean;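 as to IC50 Mean: confirmatory dose-response retesting of NadD inhibitor hits first found in an ultra-high-throughput screen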
[21] = molecular target: T8, Probable nicotinate-nucleotide adenylyltransferase; type: functional, Staphylococcus aureus subsp. aureus N315
[22] = molecular target: T9, Protein disulfide-isomerase (Homo sapiens, UniProt P07237); assay: PDI inhibitors, insulin aggregation turbidity, dose response, biochemical, absorbance, cherry-picked samples (AID 602350); type: functional
[23] = molecular target: T9, Protein disulfide-isomerase; assay: PDI inhibitors, insulin turbidity readout, dose response, biochemical, absorbance, cherry-picked samples, set 2 (AID 624274); type: functional
[24] = HepG2 cell cytotoxicity, dose response, cytotoxicity control, ATP luminescence, cherry-pick, activator set 2 (AID 1053143); type: functional, cell-based
HEK293 = assay: cells; type: functional, cell-based; details: Homo sapiens
[25] = molecular target: T3, Nuclear receptor subfamily 0 group B member 1; assay: Luminescence-based cell-based high throughput dose response assay for inhibitors of the orphan nuclear receptor subfamily 0, group B, member 1 (DAX1; NR0B1). [Related pubchem assays (depositor defined):AID504766, AID504790]; type: functional

T4 sequence (P49327 whole entry, the tested form may be a part): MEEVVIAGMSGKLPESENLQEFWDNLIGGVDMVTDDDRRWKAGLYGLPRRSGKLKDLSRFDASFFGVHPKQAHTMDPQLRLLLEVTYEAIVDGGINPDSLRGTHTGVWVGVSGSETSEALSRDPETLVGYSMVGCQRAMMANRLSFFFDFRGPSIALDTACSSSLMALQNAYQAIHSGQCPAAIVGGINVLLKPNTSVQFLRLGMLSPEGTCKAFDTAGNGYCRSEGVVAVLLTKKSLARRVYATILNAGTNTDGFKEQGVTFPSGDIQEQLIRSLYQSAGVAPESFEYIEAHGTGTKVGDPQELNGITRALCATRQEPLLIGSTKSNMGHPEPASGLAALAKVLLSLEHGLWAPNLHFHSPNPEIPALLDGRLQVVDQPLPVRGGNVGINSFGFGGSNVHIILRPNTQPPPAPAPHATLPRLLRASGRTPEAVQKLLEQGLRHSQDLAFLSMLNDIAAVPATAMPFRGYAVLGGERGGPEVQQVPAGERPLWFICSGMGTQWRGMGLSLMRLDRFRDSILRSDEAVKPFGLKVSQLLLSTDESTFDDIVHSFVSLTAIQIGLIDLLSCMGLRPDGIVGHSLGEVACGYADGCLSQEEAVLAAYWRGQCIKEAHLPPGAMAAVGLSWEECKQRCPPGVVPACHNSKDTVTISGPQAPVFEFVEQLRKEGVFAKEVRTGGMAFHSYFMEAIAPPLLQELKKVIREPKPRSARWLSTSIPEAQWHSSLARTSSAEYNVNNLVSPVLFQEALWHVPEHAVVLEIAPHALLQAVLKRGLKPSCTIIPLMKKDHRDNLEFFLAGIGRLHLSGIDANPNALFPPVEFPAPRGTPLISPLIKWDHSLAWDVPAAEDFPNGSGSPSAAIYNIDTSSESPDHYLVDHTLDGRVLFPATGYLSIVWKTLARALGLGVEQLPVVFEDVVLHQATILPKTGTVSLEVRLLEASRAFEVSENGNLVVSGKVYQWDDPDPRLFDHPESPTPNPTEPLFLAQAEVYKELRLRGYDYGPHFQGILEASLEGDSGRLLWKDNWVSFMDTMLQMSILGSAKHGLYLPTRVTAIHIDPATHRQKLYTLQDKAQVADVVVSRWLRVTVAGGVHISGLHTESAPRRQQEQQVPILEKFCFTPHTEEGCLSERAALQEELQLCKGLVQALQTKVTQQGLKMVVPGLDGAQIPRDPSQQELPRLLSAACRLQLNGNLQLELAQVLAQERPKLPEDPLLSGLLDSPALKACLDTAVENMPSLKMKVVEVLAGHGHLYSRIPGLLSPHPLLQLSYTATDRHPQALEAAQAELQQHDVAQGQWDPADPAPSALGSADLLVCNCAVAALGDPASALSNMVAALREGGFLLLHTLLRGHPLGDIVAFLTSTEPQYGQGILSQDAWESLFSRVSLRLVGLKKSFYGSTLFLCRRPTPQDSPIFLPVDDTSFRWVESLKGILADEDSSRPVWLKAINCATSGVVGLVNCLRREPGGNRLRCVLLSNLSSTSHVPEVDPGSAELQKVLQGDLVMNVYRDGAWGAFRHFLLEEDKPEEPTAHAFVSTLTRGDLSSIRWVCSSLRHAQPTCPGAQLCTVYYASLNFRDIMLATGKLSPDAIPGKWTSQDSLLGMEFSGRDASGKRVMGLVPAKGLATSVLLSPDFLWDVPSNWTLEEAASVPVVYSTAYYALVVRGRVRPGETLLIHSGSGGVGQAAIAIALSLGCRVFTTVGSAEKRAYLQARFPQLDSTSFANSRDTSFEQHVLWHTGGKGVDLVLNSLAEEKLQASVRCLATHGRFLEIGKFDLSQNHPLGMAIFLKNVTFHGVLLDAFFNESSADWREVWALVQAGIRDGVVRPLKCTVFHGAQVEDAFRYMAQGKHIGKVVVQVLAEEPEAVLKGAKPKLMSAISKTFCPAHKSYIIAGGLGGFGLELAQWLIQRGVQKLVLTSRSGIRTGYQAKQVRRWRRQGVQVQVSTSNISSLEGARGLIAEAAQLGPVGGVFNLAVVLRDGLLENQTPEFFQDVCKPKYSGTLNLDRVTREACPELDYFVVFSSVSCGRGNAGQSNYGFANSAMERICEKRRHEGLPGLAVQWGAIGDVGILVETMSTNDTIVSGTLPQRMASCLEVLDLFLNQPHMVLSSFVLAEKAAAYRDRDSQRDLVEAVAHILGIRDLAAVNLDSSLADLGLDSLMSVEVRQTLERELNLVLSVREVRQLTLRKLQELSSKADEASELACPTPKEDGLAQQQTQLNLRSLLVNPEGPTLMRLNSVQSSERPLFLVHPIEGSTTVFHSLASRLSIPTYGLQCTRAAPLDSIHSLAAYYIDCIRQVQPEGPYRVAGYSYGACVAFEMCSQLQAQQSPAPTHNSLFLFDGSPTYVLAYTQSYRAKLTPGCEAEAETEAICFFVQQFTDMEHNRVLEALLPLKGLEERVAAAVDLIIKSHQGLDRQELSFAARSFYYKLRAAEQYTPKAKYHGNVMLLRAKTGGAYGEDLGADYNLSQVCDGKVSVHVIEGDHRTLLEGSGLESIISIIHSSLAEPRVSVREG
T1 sequence (P24666 whole entry): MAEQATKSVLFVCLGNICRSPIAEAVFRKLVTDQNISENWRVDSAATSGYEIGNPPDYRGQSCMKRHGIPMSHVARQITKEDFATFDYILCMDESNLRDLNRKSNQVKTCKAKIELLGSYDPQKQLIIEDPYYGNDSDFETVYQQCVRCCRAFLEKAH
T9 sequence (P07237 whole entry): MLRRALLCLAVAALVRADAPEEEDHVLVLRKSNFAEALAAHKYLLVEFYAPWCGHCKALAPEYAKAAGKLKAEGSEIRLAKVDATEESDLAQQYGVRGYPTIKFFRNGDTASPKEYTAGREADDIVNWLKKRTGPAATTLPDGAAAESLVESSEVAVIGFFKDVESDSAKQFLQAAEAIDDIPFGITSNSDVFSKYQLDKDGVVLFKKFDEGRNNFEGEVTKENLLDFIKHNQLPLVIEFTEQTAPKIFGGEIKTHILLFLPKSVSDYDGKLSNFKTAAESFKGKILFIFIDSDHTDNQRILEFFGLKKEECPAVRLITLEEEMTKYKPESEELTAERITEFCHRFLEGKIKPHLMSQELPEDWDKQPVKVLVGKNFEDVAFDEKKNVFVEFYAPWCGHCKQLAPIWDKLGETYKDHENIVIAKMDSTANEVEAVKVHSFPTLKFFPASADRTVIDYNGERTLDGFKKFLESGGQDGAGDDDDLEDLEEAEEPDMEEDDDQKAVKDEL
T7 sequence (Q79MP6 whole entry): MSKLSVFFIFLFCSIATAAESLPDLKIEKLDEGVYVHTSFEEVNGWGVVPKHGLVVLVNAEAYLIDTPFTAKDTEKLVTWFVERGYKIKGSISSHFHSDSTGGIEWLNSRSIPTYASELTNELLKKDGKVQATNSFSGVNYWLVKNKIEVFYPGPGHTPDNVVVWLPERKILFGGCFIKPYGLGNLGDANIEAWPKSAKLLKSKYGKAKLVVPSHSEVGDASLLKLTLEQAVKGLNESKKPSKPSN
T8 sequence (P65502 whole entry): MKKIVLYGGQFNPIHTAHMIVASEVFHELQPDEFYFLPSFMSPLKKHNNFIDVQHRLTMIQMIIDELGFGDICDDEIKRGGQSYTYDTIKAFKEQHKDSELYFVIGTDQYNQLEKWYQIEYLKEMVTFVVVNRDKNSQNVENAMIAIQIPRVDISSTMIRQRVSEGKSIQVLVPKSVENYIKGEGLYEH
Beta-lactamase (Salmonella choleraesuis (strain SC-B67), UniProt Q5J463), sequence (Q5J463 whole entry): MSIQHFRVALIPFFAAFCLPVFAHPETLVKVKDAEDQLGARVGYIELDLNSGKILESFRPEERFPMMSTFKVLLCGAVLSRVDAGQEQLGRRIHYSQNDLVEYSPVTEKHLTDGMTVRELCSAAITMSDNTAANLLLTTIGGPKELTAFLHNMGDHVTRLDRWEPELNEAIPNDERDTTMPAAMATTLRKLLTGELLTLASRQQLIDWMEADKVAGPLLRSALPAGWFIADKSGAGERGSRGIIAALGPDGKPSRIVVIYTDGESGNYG
Long-chain-fatty-acid--AMP ligase FadD28, sequence (P9WQ59 whole entry): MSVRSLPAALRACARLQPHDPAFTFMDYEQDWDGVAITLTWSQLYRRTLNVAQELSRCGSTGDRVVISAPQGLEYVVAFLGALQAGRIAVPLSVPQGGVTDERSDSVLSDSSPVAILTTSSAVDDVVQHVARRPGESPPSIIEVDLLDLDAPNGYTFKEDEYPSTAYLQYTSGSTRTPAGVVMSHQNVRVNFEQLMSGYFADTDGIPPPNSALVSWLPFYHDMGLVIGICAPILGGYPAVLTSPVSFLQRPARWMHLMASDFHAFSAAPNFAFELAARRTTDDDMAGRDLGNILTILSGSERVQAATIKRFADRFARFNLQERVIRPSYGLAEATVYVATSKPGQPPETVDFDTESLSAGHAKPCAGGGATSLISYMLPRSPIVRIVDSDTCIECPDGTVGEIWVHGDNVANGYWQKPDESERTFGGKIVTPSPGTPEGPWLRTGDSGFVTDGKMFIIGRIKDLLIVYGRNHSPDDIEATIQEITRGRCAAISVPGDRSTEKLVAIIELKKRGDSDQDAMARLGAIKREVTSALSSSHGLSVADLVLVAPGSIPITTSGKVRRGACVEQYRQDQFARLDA
Mu-type opioid receptor, sequence (P35372 whole entry): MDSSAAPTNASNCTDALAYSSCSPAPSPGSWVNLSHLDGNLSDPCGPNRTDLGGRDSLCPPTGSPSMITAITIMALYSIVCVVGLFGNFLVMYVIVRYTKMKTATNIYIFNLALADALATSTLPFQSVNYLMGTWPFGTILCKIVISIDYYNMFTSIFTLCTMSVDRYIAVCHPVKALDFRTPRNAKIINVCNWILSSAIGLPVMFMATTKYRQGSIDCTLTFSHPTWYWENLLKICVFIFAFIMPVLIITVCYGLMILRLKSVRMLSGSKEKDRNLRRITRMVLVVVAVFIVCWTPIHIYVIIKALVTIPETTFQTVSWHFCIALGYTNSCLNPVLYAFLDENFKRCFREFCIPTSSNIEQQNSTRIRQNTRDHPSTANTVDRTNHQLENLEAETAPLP

CCN1CCN(Cc2nc3ncc([N+](=O)[O-])cc3c(=O)n2-c2ccccc2)CC1
IC50 [1]: 0.832 µM (active)

CN(C)c1cc(-c2ccc(Cl)c(Cl)c2)oc(=O)c1Cl
IC50 [2]: 35.4 µM (inactive)
IC50 [3]: 8.63 µM (active)

Nc1nc(-c2ccccc2)c(N=Nc2cccc3ccccc23)s1
EC50 (Streptokinase A): > 150 µM (not active)
EC50 (Streptococcus): > 150 µM (not active)
IC50 [4]: 31.3 µM (inactive)
IC50 (Nonstructural protein 1): 9.98 µM (active)
EC50 [5]: 4.14 µM (active)

O=S(=O)(Nc1cccc(-c2ccc(N3CCCCCC3)nn2)c1)c1ccccc1F
IC50 [6]: > 67.6 µM (inactive)
IC50 (Fatty acid synthase [7]): 7.03 µM (active)
IC50 (cells): > 67.6 µM (inactive)
CC50 [8]: > 50 µM (active)
IC50 (Fatty acid synthase [9]): 6.9 µM (active)

O=C(N/N=C\c1cccc([N+](=O)[O-])c1O)C1COc2ccccc2O1 (stereo unspecified)
AC50 [10]: 90.6 µM (active)
IC50 (Aminopeptidase N): 31.4 µM (active)

COc1cccc(-c2cnc3c(NC(C)=O)cc(-c4ccc(S(C)(=O)=O)cc4)cn23)c1
IC50 [11]: 9.25 µM (active)
IC50 [12]: 23.5 µM (inactive)
IC50 (Steroidogenic factor 1): 4.62 µM (active)

Cc1ccc(NC(S)=NNc2ccc(C(=O)O)cc2[N+](=O)[O-])cc1C
AC50 [13]: > 100 µM (inactive)

Cc1c(C(=O)N2CCCC2)oc2ccc(Br)cc12
AC50 (Vero): 35.1 µM (active)
AC50 (Caspase-6): 23.5 µM (active)

Sc1nnc(-c2ccccc2)n1Cc1ccccc1
IC50 (Beta-lactamase [14]): > 59.6 µM (inactive)
IC50 (Beta-lactamase [15]): > 59.6 µM (inactive)
IC50 (Beta-lactamase [16]): > 59.6 µM (inactive)

CCOc1cc(CN2CCN(C(=O)c3ccco3)CC2)ccc1OC
EC50 (Mu-type opioid receptor): 92.5 µM (inactive)
EC50 [17]: 5.88 µM (active)

COc1ccc(-c2cc3nc(C)cc(N4CCN(C(=O)c5ccoc5)CC4)n3n2)cc1
EC50 [18]: 6.12 µM (active)
IC50 (H9c2): 27.3 µM (active)

CC(C)N1C[C@@H](CN(C)Cc2ccc(Cl)cc2)Oc2c(NC(=O)c3ccnnc3)cccc2C1=O
AC50 [19]: 0.198 µM (active)

CCOC(=O)C1=C(C)c2ccccc2N(C(=O)OC)C1(C)C(=O)OCC (stereo unspecified)
IC50 [20]: 34.6 µM (active)
IC50 [21]: 15.6 µM (active)

CC(C)N(C)C(=O)CCc1nnc(CCc2c[nH]c3ccccc23)o1
AC50 [22]: < 0.009 µM (active)
AC50 [23]: 0.009 µM (active)

Cc1ccc(NC(=O)c2ccc(Cl)cc2Cl)cc1O
AC50 [24]: 26 µM (active)
IC50 (HEK293): > 67.6 µM (inactive)
IC50 [25]: > 67.6 µM (inactive)
